Experimental findings from patent US5886146A, “Inhibitors of thrombosis” (Corvas International, Inc., priority 1995, dated 1999) are described below.

Experiment [1] has as its target T1, Human factor Xa (Homo sapiens, UniProt P00742).
T1 construct: Human factor Xa was prepared from purified human factor X obtained from Enzyme Research Laboratories; purchased Enzyme Research Laboratories
In words: Factor Xa assay, chromogenic substrate S2765. The conditions noted are these: purified human enzyme 0.5 nM, 30 minute incubation, substrate 250 μM, HBSA pH 7.5. In kind it is biochemical. As for the experimental part: The buffer used for all assays was HBSA (10 mM HEPES, pH 7.5, 150 mM sodium chloride, 0.1% bovine serum albumin). […] Following a 30 minute incubation at ambient temperature, 50 μL of the substrate at the concentrations specified below, was added to the wells yielding a final total volume of 200 μL. The initial velocity of chromogenic substrate hydrolysis was measured by the change in absorbance at 405 nm using a Thermo Max® Kinetic Microplate Reader over a 5 minute period in which less than 5% of the added substrate was utilized.
Factor Xa catalytic activity was determined using the substrate, S2765 (N-α-benzyloxycarbonyl-D-argininyl-L-glycyl-L-arginine-p-nitroanilide dihydrochloride) which was obtained from Kabi Diagnostica. […] Human factor Xa was prepared from purified human factor X obtained from Enzyme Research Laboratories according to the method described by Bock, P. E. et al., Archives of Biochem. Biophys. 273: 375 (1989). The enzyme was diluted into HBSA prior to the assay in which the final concentration was 0.5 nM.

Experiment [2] concerns the target human α-thrombin (Homo sapiens, UniProt P00734). In words: Thrombin assay, chromogenic substrate Pefachrome t-PA. In kind it is biochemical. The following applies: purified human enzyme 0.25 nM, 30 minute incubation, substrate 300 μM, HBSA pH 7.5. The method, then:
The buffer used for all assays was HBSA (10 mM HEPES, pH 7.5, 150 mM sodium chloride, 0.1% bovine serum albumin). […] Following a 30 minute incubation at ambient temperature, 50 μL of the substrate at the concentrations specified below, was added to the wells yielding a final total volume of 200 μL.
Thrombin catalytic activity was determined using the chromogenic substrate Pefachrome t-PA (CH3 SO2 -D-hexahydrotyrosine-glycyl-L-arginine-p-nitroaniline, obtained from Pentapharm Ltd.).

Experiment [3] concerns FeCl3-induced platelet-dependent arterial thrombosis. In kind it is in vivo, rat. The conditions noted are these: for Clot Size: mean ± S.E.M. The text has this: Res., 60: 269-280 (1990). […] Res., 60: 269-280 (1990). […] The animals were then euthanized.
The target in experiment [4] is human plasmin (Homo sapiens, UniProt P00747). In words: Plasmin assay, chromogenic substrate S-2251. In kind it is biochemical. The conditions noted are these: purified human enzyme 1.0 nM, 30 minute incubation, substrate 300 μM, HBSA pH 7.5.
Sequence of human plasmin (P00747 581-810 limits assumed): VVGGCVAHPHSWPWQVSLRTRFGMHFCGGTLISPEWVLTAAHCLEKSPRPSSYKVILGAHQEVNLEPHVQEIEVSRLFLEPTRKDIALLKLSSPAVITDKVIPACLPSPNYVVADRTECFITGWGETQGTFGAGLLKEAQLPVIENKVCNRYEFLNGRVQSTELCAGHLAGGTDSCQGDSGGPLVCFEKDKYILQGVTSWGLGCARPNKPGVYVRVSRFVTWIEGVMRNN
Sequence of human plasmin (P00747 97-580 partner limits assumed): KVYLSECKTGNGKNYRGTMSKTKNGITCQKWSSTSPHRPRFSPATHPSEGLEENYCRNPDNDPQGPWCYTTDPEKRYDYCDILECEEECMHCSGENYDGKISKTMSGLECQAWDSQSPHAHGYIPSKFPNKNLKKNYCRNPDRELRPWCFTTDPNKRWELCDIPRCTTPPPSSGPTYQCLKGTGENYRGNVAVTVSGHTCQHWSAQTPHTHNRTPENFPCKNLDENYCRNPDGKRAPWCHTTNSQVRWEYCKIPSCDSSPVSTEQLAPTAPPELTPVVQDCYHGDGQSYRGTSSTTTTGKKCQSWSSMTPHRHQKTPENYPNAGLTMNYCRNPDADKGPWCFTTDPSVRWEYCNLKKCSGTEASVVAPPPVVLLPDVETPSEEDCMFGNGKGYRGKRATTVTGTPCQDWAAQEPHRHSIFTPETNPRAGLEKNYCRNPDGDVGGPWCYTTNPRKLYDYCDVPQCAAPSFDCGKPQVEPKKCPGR
Method: Plasmin catalytic activity was determined using the chromogenic substrate, S-2251 [D-valyl-L-leucyl-L-lysine-p-nitroanilide dihydrochloride], which was obtained from Kabi Diagnostica.

Where two headings read alike, the source gives them in different places. Peptide text beside a SMILES is read from it. * marks the point of attachment. Hydrocinnamoyl = O=C(CCc1ccccc1)*

T1 sequence (P00742 235-488 limits assumed): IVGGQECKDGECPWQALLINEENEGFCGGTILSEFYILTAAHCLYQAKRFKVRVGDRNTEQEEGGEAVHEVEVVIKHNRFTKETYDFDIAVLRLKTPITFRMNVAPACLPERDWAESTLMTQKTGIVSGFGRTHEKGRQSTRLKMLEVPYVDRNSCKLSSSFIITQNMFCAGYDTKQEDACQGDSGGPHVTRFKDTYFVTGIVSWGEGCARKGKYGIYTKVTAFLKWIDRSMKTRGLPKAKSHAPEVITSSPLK
T1 sequence (P00742 41-179 partner limits assumed): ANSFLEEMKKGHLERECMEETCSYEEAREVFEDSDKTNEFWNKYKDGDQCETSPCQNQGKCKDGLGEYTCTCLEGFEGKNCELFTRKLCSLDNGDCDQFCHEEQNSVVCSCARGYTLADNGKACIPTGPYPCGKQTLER

On to `CCCC(CCC)C(=O)N[C@@H](CC(=O)O)C(=O)N1CCC[C@H]1C(=O)N[C@H](C=O)CCCNC(=N)N` [2PrPent-Asp-Pro-Arg-al, N-(2-propylpentanoyl)-L-aspartyl-L-prolyl-L-argininal], for which the IC50 in experiment [1] came to 241 nM; in experiment [2], 6.2 nM.
`N=C(N)NCCC[C@@H](C=O)NC(=O)[C@@H]1CCCN1C(=O)[C@H](CC(=O)O)NC(=O)CCc1ccccc1` [HCA-Asp-Pro-Arg-al, N-(3-phenylpropionyl)-L-aspartyl-L-prolyl-L-argininal] (Hydrocinnamoyl-Asp-Pro-Arg-aldehyde): the IC50 is 52 nM in experiment [1] and 92 nM in experiment [2]. Also, the “Clot Size” value in experiment [3] (Group 1, 25 μg/kg/min i.v. infusion) is on record as 48.38 ± 24.71%; in experiment [3] (Group 2, 50 μg/kg/min i.v. infusion), 22.38 ± 21.0%; in experiment [3] (Group 3, 100 μg/kg/min i.v. infusion) it was 3.38 ± 5.44%. In addition, in experiment [3] (rat FeCl3 model, i.v. infusion), the “Efficacy as an antithrombotic agent (in words)” value was “reduction in the incidence of occlusion and in clot size”.
Consider `CC(C)CCC(=O)N[C@@H](CC(=O)O)C(=O)N1CCC[C@H]1C(=O)N[C@H](C=O)CCCNC(=N)N` [4MeV-Asp-Pro-Arg-al, N-(4-methylpentanoyl)-L-aspartyl-L-prolyl-L-argininal], for which the results for the IC50 in experiment [1] and in experiment [2] were 74 nM and 139 nM, respectively.
On the same counts, the results for `N=C(N)NCCC[C@@H](C=O)NC(=O)[C@@H]1CCCN1C(=O)[C@H](CC(=O)O)NC(=O)CCC1CCCCC1` [ChxPA-Asp-Pro-Arg-al, N-(3-cyclohexanepropionyl)-L-aspartyl-L-prolyl-L-argininal] are 24 nM and 41 nM.
On to `CC(C)CCC(=O)NC(Cc1nnn[nH]1)C(=O)N1CCC[C@H]1C(=O)N[C@H](C=O)CCCNC(=N)N` (stereo partly drawn) [4MeV-Ala(Tzl)-Pro-Arg-al, 3-tetrazolyl-2-(4-methylvaleroylamido) propionyl-L-prolyl-L-argininal], for which it took 500 nM to reach half-maximal inhibition in experiment [4] (IC50).
